From article PMC10077203, “Structure modification, antialgal, antiplasmodial, and toxic evaluations of a series of new marine-derived 14-membered resorcylic acid lactone derivatives” (Marine Life Science & Technology, 2021)
Where “and” joins values, the source holds several entries; their conditions need not be identical. Identical values can stand only once. Like-named read-outs stand apart in the source and are kept apart here.

How the values were obtained:
[1] = tested on: chloroquine sensitive HB3 strain of P. falciparum; assay: In vitro antiplasmodial assay (Pico-Green growth inhibition); format: cell-based, Plasmodium falciparum; settings: for IC50: Plasmodium falciparum, Erythrocyte, HB3 strain in human erythrocytes, read-out: P. falciparum IC50; for P. falciparum SI, Selectivity Index (CC50/IC50): CC50 HUVEC / IC50 P. falciparum; for antiplasmodial activity against P. falciparum (in words): structure-activity discussion
Experimental: In vitro antiplasmodial activity was performed by culturing human erythrocytes and infecting them with P. falciparum, as reported by Trager and Jensen ([1976]). Briefly, the chloroquine sensitive HB3 strain of P. falciparum-infected O + erythrocytes was cultured in RPMI 1640 medium supplemented with 10% human serum (from O + blood) at a hematocrit of 2% erythrocytes at 37 °C with a gas mixture containing 90% N2, 5% CO2, and 5% O2. Parasites were synchronized with 5% D-sorbitol (Lambros and Vanderberg [1979]). P. falciparum growth inhibition bioassays were performed with the procedure as described by Corbett et al. ([2004]), which used Pico-Green, a double stranded-DNA fluorescent dye to test the effect of compounds.

[2] = tested on: C. socialis; assay: Diatom growth inhibition assay (antialgal activity); format: cell-based, Chaetoceros socialis; settings: 48 h, chlorophyll a of attached microalgae, read-out: EC50 C. socialis
Experimental: (§1) The antialgal activity against the microalgae P. tricornutum Bohlin, C. vulgaris, C. socialis, N. laevissima, and N. exigua was evaluated by the method of Ortlepp et al. ([2008]). Briefly, the microalgae were grown in sterilized BG11 medium under light intensity of 2500 lx and 12 h: 12 h light: dark cycle at temperature of 20 ℃. The microalgae were grown to reach the logarithmic phase (approximately 5 × 10^5 cells/ml), which were used for microalgae growth inhibition assay. The compounds 1–71 were first dissolved in a small amount of DMSO and then diluted with 0.22 μm of filtered seawater (FSW) to achieve a range of concentrations from 0.625 to 50 μg/ml. Ten microliters of the compound solution was added to multiwell Petri dishes containing a 1-mL suspension of the microalgae (approximately 12 × 10^4 cells/ml). FSW with DMSO was used as a negative control, and solutions of SeaNine 211 in seawater were used as positive controls. After the plates were incubated for 48 h (16 ± 1 ℃) under continuous light, the FSW with non-attached microalgae was removed. The amount of chlorophyll a in attached microalgae was determined with a spectrophotometer (Beckman, model DU650, USA). Then the EC50 (inhibits 50% of settlement of cyprids in comparison with the control) was calculated using the Probit software program.

[3] = tested on: P. tricornutum Bohlin; assay: as above; format: cell-based, Phaeodactylum tricornutum Bohlin; settings: 48 h, chlorophyll a of attached microalgae, read-out: EC50 P. tricornutum
Experimental: as §1

[4] = tested on: P. tricornutum Bohlin, C. vulgaris, C. socialis, N. laevissima, and N. exigua; assay: Diatom growth inhibition assay, whole panel; format: cell-based; settings: Chlorella vulgaris; selective and moderate activities; read-out: EC50 antialgal, range over compounds and algae
Experimental: as §1

[5] = tested on: N. exigua; assay: Diatom growth inhibition assay (antialgal activity); format: cell-based, Navicula exigua
Experimental: as §1

[6] = tested on: N. laevissima; assay: as above; format: cell-based, Navicula laevissima; settings: 48 h, chlorophyll a of attached microalgae, read-out: EC50 N. laevissima
Experimental: as §1

[7] = tested on: C. vulgaris; assay: as above; format: cell-based, Chlorella vulgaris; settings: 48 h, chlorophyll a of attached microalgae, read-out: EC50 C. vulgaris
Experimental: as §1

[8] = In vitro cytotoxicity (CC50); format: cell-based; settings: human, HUVEC cells
Excerpt: Toxicity is a major concern of drug discovery and development, and the selectivity index (SI) is used as the evaluation parameter of drug potential of the test samples by comparing the toxicity on a human cell line (CC50) and the selective inhibitory effect on P. falciparum (IC50) calculated here as CC50/IC50. We decided to evaluate in vitro cytotoxicity of the active derivatives 38, 39, 50, 52, 65, 67, 70, and 71 by determining their 50% cytotoxic concentrations. The results are presented in Table 3, presenting only those CC50 values > 100 μmol/L, reaching selectivity indexes > 10. The cytotoxic concentration at 150 μmol/L was not be determined because of a lack of solubility of the tested molecule in the culture medium. Moreover, the toxicity of these derivatives was also evaluated against two other cell lines: hepatocellular liver carcinoma cell line (Hep G2) and cervical carcinoma (HeLa), finding CC50 values > 100 μmol/L.

[9] = 48 h, chlorophyll a of attached microalgae, read-out: EC50 N. exigua

`COCC(=O)Oc1cc(OC)c(Cl)c2c1C(=O)OC(C)CC=CC1OC(C)(C)OC1C(OC(=O)COC)CC=C2` (stereo not drawn) [Compound 35] gave an IC50 [1] of 11.6 µM.

In the case of `COc1cc2c(c(OCc3ccc(C(F)(F)F)cc3)c1)C(=O)OC(C)CC=CC1OC(C)(C)OC1C(O)CC=C2` (stereo not drawn) [Compound 45], the EC50 ([2]; Chaetoceros socialis) is reported as greater than 10 µM, the EC50 ([3]; Phaeodactylum tricornutum) is reported as greater than 10 µM and the EC50 [4] is reported as 11 to 32.5 µM. It also gave an EC50 [5, 9] of 18.3 µM, an EC50 ([6]; Sellaphora laevissima) of 27.4 µM and an EC50 ([7]; Chlorella vulgaris) of 13 µM.

With `COc1cc(COc2cc(OC)c(Cl)c3c2C(=O)OC(C)CC=CC2OC(C)(C)OC2C(O)CC=C3)cc(OC)c1` (stereo not drawn) [Compound 50] the CC50 [8] was greater than 100 µM, the “P. falciparum SI, Selectivity Index (CC50/IC50)” value [1] was greater than 12 and the IC50 [1] was 7.82 µM. The “antiplasmodial activity against P. falciparum (in words)” value [1] was “active”.

In the case of `COC(=O)c1ccc(COc2cc(OC)c(Cl)c3c2C(=O)OC(C)CC=CC2OC(C)(C)OC2C(O)CC=C3)cc1` (stereo not drawn) [Compound 52], the CC50 [8] is reported as greater than 100 µM, the “P. falciparum SI, Selectivity Index (CC50/IC50)” value [1] is reported as greater than 10 and the IC50 [1] is reported as 9.72 µM.

Compound `[2H]C([2H])([2H])C1(C([2H])([2H])[2H])OC2C=CCC(C)OC(=O)c3c(cc(OC)cc3OCc3ccccc3Br)C=CCC(O)C2O1` (stereo not drawn) [Compound 58] has an EC50 ([2]; Chaetoceros socialis) greater than 10 µM, an EC50 ([3]; Phaeodactylum tricornutum) of 28.2 µM and an EC50 [4] of 11 to 32.5 µM. The EC50 [5, 9] was 20.1 µM, the EC50 ([6]; Sellaphora laevissima) was greater than 10 µM and the EC50 ([7]; Chlorella vulgaris) was 15.9 µM.

With `[2H]C([2H])([2H])C1(C([2H])([2H])[2H])OC2C=CCC(C)OC(=O)c3c(cc(OC)cc3OCc3cccc(F)c3)C=CCC(O)C2O1` (stereo not drawn) [Compound 60] the “antiplasmodial activity against P. falciparum (in words)” value [1] was “active”.

For `[2H]C([2H])([2H])C1(C([2H])([2H])[2H])OC2C=CCC(C)OC(=O)c3c(cc(OC)cc3OCc3cccc(C)c3)C=CCC(O)C2O1` (stereo not drawn) [Compound 62], the EC50 ([2]; Chaetoceros socialis) was 25.8 µM, the EC50 ([3]; Phaeodactylum tricornutum) was greater than 10 µM and the EC50 [4] was 11 to 32.5 µM. For the same compound, the EC50 [5, 9] was 14.2 µM, the EC50 ([6]; Sellaphora laevissima) was greater than 10 µM and the EC50 ([7]; Chlorella vulgaris) was 16.3 µM.

In the case of `[2H]C([2H])([2H])C1(C([2H])([2H])[2H])OC2C=CCC(C)OC(=O)c3c(cc(OC)cc3OCc3ccc(-c4ccccc4C#N)cc3)C=CCC(O)C2O1` (stereo not drawn) [Compound 65], the CC50 [8] is reported as greater than 100 µM, the “P. falciparum SI, Selectivity Index (CC50/IC50)” value [1] is reported as greater than 12 and the IC50 [1] is reported as 7.82 µM.

With `[2H]C([2H])([2H])C1(C([2H])([2H])[2H])OC2C=CCC(C)OC(=O)c3c(cc(OC)cc3OCc3ccc(-c4ccccc4C(=O)OC)cc3)C=CCC(O)C2O1` (stereo not drawn) [Compound 67] the CC50 [8] was greater than 100 µM, the “P. falciparum SI, Selectivity Index (CC50/IC50)” value [1] was greater than 13 and the IC50 [1] was 7.25 µM.

Work on `CCC(=O)Oc1cc(OC)cc2c1C(=O)OC(C)CC=CC(OC(=O)CC)C(OC(=O)CC)C(OC(=O)CC)CC=C2` (stereo not drawn) [Compound 69] yielded an IC50 [1] of 9.18 µM.

In the case of `CCC(=O)Oc1cc(OC)c(Cl)c2c1C(=O)OC(C)CC=CC(OC(=O)CC)C(OC(=O)CC)C(OC(=O)CC)CC=C2` (stereo not drawn) [Compound 70], the CC50 [8] is reported as greater than 100 µM, the “P. falciparum SI, Selectivity Index (CC50/IC50)” value [1] is reported as greater than 14 and the IC50 [1] is reported as 6.91 µM.

With `COc1cc(OC(=O)C(C)(C)C)c2c(c1Cl)C=CCC(OC(=O)C(C)(C)C)C(O)C(OC(=O)C(C)(C)C)C=CCC(C)OC2=O` (stereo not drawn) [Compound 71] the CC50 [8] was greater than 100 µM, the “P. falciparum SI, Selectivity Index (CC50/IC50)” value [1] was greater than 28 and the IC50 [1] was 3.54 µM.

In the case of `CCCCCCCCn1sc(Cl)c(Cl)c1=O` [SeaNine 211, reference compound], the EC50 [2] is reported as 1.87 µM, the EC50 [3] is reported as 0.74 µM and the EC50 ([5]; 48 h, chlorophyll a of attached microalgae; read-out: EC50 N. exigua) is reported as 9.74 µM and 9.47 µM. The EC50 [6] was 2.9 µM and the EC50 [7] was 6.52 µM.
